From patent US4457919A, “Method of imparting immunomodulating, antiviral or antitumor activity” (Newport Pharmaceutical International, Inc., priority 1982, dated 1984)
“Also recorded” adds a separate entry of the source. Read-outs that look alike come from different tables or passages of the source.

Key:
[1] = Chemical stability at varying pH, conversion to NPT 15392 (HPLC); type: physicochemical; conditions: for Chemical stability (in words): 37° C., neutral pH; for degraded at 3.5 h, 360 µM: 3.5 hours incubation at 37° C., 0.36 μm/ml
Description: Compound (conc.) % of NPT 15392*
*3.5 hours incubation at 37° C., determined using HPLC

HPBL (active E-rosettes) = assay: Enhancement of active E-rosette formation in HPBL (in vitro); type: cell-based, human; conditions: for Immunomodulating (in vitro) Rosette, change: Table 11 summary; for Immunomodulating (in vitro) rosette formation (in words): active rosettes, HPBL
Description: 3. Enhancement of active rosette formation (in vitro).
3. As can be noted from Table 7, both NPT 15457 and NPT 15458 are effective in modulating active rosette formation in HPBL. […] In Experiment #2, placebo-treated controls have abnormally high values for active rosettes.
1. Ten to 40 ml of whole blood is drawn from healthy volunteers in heparinized tubes.
2. Lymphocytes are separated from the above blood using Ficoll-hypaque separation techniques.
3. Various concentration of test compound are prepared in RPMI-1640.
4. The concentration of lymphocytes are adjusted to 2×10^6 /ml of RPMI-1640.
5. Lymphocytes are incubated with test compound for 90 minutes at 37° C.
6. Sheep Red Blood Cells (SRBC.s) (one to two weeks old) are washed 3 times with PBS and diluted to a final concentration of 0.5% inj RPMI-1640.
7. Reaction tubes are set up containing the following:
8. The above reactants are centrifuged at 200×g for 5 minutes at room temperature.
9. The sediment is then gently resuspended and a […] sample placed in a hemocytometer.
10. The number of rosettes are then counted using a microscope with any lymphocyte having 3 or more attached red cells being counted as a rosette.

[2] = tested on: IgM antibody production to sheep red blood cells; assay: IgM antibody formation in SRBC-immunized Balb/c mice (immunoplaque assay, in vivo); conditions: for Immunomodulating (in vivo) IgM formation (in words): SRBC immunized mice
Description: 4. Enhancement of IgM antibody formation in mice immunized with sheep red blood cells (SRBC) (in vivo).
4. NPT 15457 and NPT 15458 and the "active" drug, NPT 15392, were given to Balb/c mice who had been immunized with sheep red blood cells SRBC. Antibody production to SRBC was measured. […] NPT 15392, at the levels studied, produce a 46% increase in IgM production. Higher doses of NPT 15392 will cause less of an increase or decrease over control values. […] This is to be expected since NPT 15458 produces very high levels of NPT 15392 which are most likely inhibitory to IgM formation.
1. Mice are immunized as follows: sheep blood (sheep #23) is received weekly from Hyland Labs. It is aseptically collected in two volumes of Alseviers to one volume of blood.
2. Five-tenths ml of the sheep blood in Alseviers is washed three times in sterile PBS in an IEC clinical centrifuge, setting #4 (2800 rpm) for 10 min. at room temperature.
3. The pellet is resuspended in 1:10 in sterile PBS.
4. A model Z Coulter counter is calibrated according to Coulter Instruction Manual.
5. A […] dilution is needed for a Coulter counter cell count and is obtained by first making a 1:100 dilution in PBS and then diluting this solution 1:10 in isoton. The Coulter counter threshold is adjusted to setting #5.
6. The cell count is determined and the stock solution is diluted to 4×10^7 cells/ml. This final suspension is used for immunization.
7. Each mouse is immunized by i.v. injection into the lateral tail vein (warmed in a 50° C. water bath for veinous dilation) with 0.1 ml SRBC suspension; the final concentration of SRBC's is 4×10^6 per mouse.
1. Mice are treated by i.p. injection on days 0, 1, 2 and 3. A syringe (1 cc) is fitted with a one-half inch, 26 gauge needle. The needle is introduced at a 45° angle along the right side of the linea alba. A 0.2 ml volume is given to both drug and control treated groups.
2. Drug groups are given 0.2 ml of a desired concentration NPT 15392 solution which, for a 20 g mouse, is 5 μg/ml.
1. Spleens are removed aseptically and placed individually in Falcon #2025 tissue culture tubes containing 3 ml MEM. The tubes are then stored on ice.
2. Spleens are homogenized in the same tube with a teflon pestle attached to a G. K. Heller variable speed reversible motor connected with a G. K. Heller GT-21 motor controller setting #6.
3. The homogenization time and action should be uniform from sample to sample.
4. Samples are then filtered through a 100 mesh 40 micron stainless screen into a standard tissue culture tube. The screen is rinsed with 3 ml MEM and the cell suspension is stored on ice.
5. A 1:1000 dilution is made for a Coulter counter cell count and is obtained by first making a 1:100 dilution in PBS followed by a 1:10 dilution in isoton.
6. The cell count is obtained and the stock suspension is diluted to 1×10^7 cells/ml. The Coulter counter threshold is set at 10. Red cells are lysed with three drops of Zap isoton.
Agar plates are removed from regrigerator and allowed to warm to room temperature. They are labeled in triplicate for each experimental group.
2. Agar-filled tubes are removed from the water bath. One-tenth of the 10% SRBC's and 0.1 ml spleen cell suspension are added to each agar tube. The tubes are agitated on a Vortex mixer.
3. The contents of the tubes are poured immediately into agar base plates and swirled until a smooth layer is formed. The plates are placed on a level surface until the agar solidifies.
4. The plates are incubated at 37° C. in a humidified atmosphere of 5% CO2 and 95% air for 90 min.
5. Guinea pig complement (see preparation, section D) is removed from freezer, thawed at room temperature and diluted 1:10 in PBS.
6. Plates are removed from incubator and 1 ml of the diluted complement is added to each plate.
7. Plates are then incubated another 30-45 minutes at 37° C. Plates are then removed from incubator and counted using oblique light.
8. […]

[3] = Formation of NPT 15392 on incubation with Vero cells (HPLC); type: in vitro ADME, African Green Monkey; conditions: monkey, 24 hrs.
Text: (§1) | ^a Determined using HPLC

Vero Cells = assay: as above; type: in vitro ADME, African Green Monkey; conditions: 0 hrs.
Text: as §1

[4] = Formation of NPT 15392 on incubation with liver homogenate (HPLC); type: in vitro ADME; conditions: for % of NPT 15392: 0 hrs.
Text: as §1

[5] = tested on: Influenza virus (A sub-type)
[6] = Experiment #1, 3.6 n moles/ml, placebo 9.23 ± 2.9, NPT 15457 and NPT 15458 p ≤ 0.05 versus placebo
[7] = Experiment #2, 0.36 n moles/ml, placebo 34.2 ± 6.6, NPT 15392 and NPT 15458 p ≤ 0.05 versus placebo
[8] = Expt 1, 1.8 n moles/kg × 4 i.p., all p ≤ 0.01 vs placebo
[9] = Expt 1, 1.8 n moles/kg × 4 i.p., control 28 ± 2
[10] = Expt 2, .18 n moles/kg × 4 i.p., NPT 15392 and NPT 15458 p ≤ 0.01 vs placebo
[11] = Expt 2, .18 n moles/kg × 4 i.p., control 46 ± 2

| SMILES | degraded at 3.5 h, 360 µM ([1]; pH 1.0) [%] | degraded at 3.5 h, 360 µM ([1]; pH 7.0) [%] | degraded at 3.5 h, 360 µM ([1]; pH 9.5) [%] | % Active E-Rosettes (mean ± S.E.) (HPBL (active E-rosettes); [6]) [%] | % Active E-Rosettes (mean ± S.E.) (HPBL (active E-rosettes); [7]) [%] | Immunomodulating (in vitro) Rosette, change (HPBL (active E-rosettes)) | Immunomodulating (in vitro) rosette formation (in words) (HPBL (active E-rosettes)) | # IgM Plaques % of Control [2, 8] [%] | # IgM Plaques (mean ± S.E.) [2, 9] | # IgM Plaques % of Control [2, 10] [%] | # IgM Plaques (mean ± S.E.) [2, 11] | Immunomodulating (in vivo) IgM formation (in words) [2] | metabolised at 24 h [3] [%] | % of NPT 15392 (Vero Cells) [%] | % of NPT 15392 [4] [%] | metabolised at 0.5 h [4] [%] | % Inhibition of Influenza Virus Growth ([5]; 3.6 nmoles/ml) [%] | % Inhibition of Influenza Virus Growth ([5]; 10.8 nmoles/ml) [%] | % Inhibition of Influenza Virus Growth ([5]; 36 nmoles/ml) [%] | % Inhibition of Influenza Virus Growth ([5]; .36 nmoles/ml) [%] | other results |
| --- | --- | --- | --- | --- | --- | --- | --- | --- | --- | --- | --- | --- | --- | --- | --- | --- | --- | --- | --- | --- | --- |
| CCCCCC[C@H]([C@H](C)OC(C)=O)n1cnc2c(=O)[nH]cnc21 (relative stereo) [NPT 15458, erythro-9-(2-Acetoxy-3-Nonyl)-Hypoxanthine] | 8 | 0 | 28 | 19.4 ± 1.0 | 23.25 ± 1.24 | +11% | as active as NPT 15392 in restoring the depressed immunity to normal levels and able to decrease the high levels of normal values and Yes | 28.5 | 8 ± 1 | 23.9 | 11 ± 1 | produces an inhibition of IgM formation and very effective in modulating the production of IgM antibodies and Yes | 50 | 0 | 0 | 70 | 40 | 80 | 88 | 26 | Chemical stability (in words) [1]: have stability; Chemical conversion to NPT 15392 (in words) ([1]; pH 7.0): No; Chemical conversion to NPT 15392 (in words) ([1]; pH 9.5): basic hydrolysis at pH 9.5 can convert and Yes; Immunomodulating (in vivo) SRPC-IgM, change ([2]; Table 11 summary): -72%; Cleavage to NPT 15392 (in words) ([5]; hemadsorption assay): almost completely cleaved to NPT 15392; Antiviral activity in vitro (in words) [5]: Yes |
| CCCCCC[C@H]([C@H](C)OC(=O)CCC(=O)O)n1cnc2c(=O)[nH]cnc21 (relative stereo) [NPT 15457, Erythro-9-(2-Succinoxy-3-Nonyl) Hypoxanthine] | 2 | 0 | 8 | 24.8 ± 6 | 33.6 ± 2.4 | +166% | as active as NPT 15392 in restoring the depressed immunity to normal levels and Yes | 68 | 19 ± 3 | 102 | 47 ± 3 | less than that of NPT 15458; also recorded: Moderate | 0 | 0 | 0 | 14 | 0 | 18 | 13 | 18 | Chemical stability (in words) [1]: have stability; Chemical conversion to NPT 15392 (in words) ([1]; pH 7.0): No; Chemical conversion to NPT 15392 (in words) ([1]; pH 9.5): basic hydrolysis at pH 9.5 can convert and Yes; Immunomodulating (in vivo) SRPC-IgM, range ([2]; Table 11 summary, unit not given): 0-60 |
| CCCCCC[C@H]([C@H](C)O)n1cnc2c(=O)[nH]cnc21 (relative stereo) [NPT 15392, erythro-9-(2-hydroxy-3-nonyl)-hypoxanthine, reference compound] | 100 | 100 | 100 | 16.2 ± 1.0 | 15.4 ± 2.9 | +78% | able to decrease the high levels of normal values and Yes | 146 | 41 ± 4 | 147 | 68 ± 2 | very effective in modulating the production of IgM antibodies and Yes | 100 | 100 | 100 | 100 | 30 | 42 | 73 | 20 | Immunomodulating (in vivo) SRPC-IgM, change ([2]; Table 11 summary): +46%; Increase in IgM production ([2]; at the levels studied): 46%; Antiviral activity in vitro (in words) [5]: Yes |
